According to ChEMBL document CHEMBL5528050, “Discovery of a Novel Series of Homo sapiens Caseinolytic Protease P Agonists for Colorectal Adenocarcinoma Treatment via ATF3-Dependent Integrated Stress Response” (J Med Chem, 2024):
Active and inactive are the calls of the source. No cut-off for these calls is given here.

How the values were obtained:
[1] = test system: HCT-15; assay: cells; settings: Homo sapiens, HCT-15, 72 h
Description: Antiproliferative activity against human HCT-15 cells assessed as inhibition of cell growth measured after 72 hrs by CCK-8 method

[2] = biological target: T1, ATP-dependent Clp protease proteolytic subunit (Staphylococcus aureus (strain NCTC 8325)) (UniProt Q2G036); assay: Agonist activity at Staphylococcus aureus ClpP using Suc-LY-AMC as substrate at 10 to 100 uM measured every 5 mins for 1 hr by fluorescence based analysis; settings: dose 10-100 µM
T1 sequence (whole entry): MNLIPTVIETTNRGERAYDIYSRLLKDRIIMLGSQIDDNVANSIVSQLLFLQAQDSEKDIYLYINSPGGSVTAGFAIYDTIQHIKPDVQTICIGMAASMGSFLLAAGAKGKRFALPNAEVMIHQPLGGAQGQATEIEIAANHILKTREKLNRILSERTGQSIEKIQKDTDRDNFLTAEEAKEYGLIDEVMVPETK

[3] = test system: HCT-116; assay: Antitumor activity against human HCT-116 cells xenografted in BALB/c nude mouse model assessed as reduction in tumor volume at 2.5 mg/kg,iv administered twice weekly and measured upto 21 days relative to control; type: functional; design: scale not given: the % may be the effect or the level left; settings: time <= 21 day
[4] = Toxicity in BALB/c nude mouse assessed as effect on spleen at 1.25 to 5 mg/kg, iv administered twice weekly and measured after 21 days by H and E staining based analysis; type: organism-based; settings: in vivo, 504 h, dose 1.25-5 mg/kg, time 21 day
[5] = Antiproliferative activity against rat H9c2 cells assessed as inhibition of cell growth measured after 72 hrs by CCK-8 method; type: toxicity, cell-based
[6] = Acute toxicity in BALB/c mouse assessed as effect on lung at 50 mg/kg, iv administered as single dose measured upto 14 days by H and E staining based analysis; type: organism-based; settings: in vivo, 336 h, time < 14 day
[7] = test system: DLD-1; assay: cells; settings: Homo sapiens, DLD-1, 72 h
Description: Antiproliferative activity against human DLD-1 cells assessed as inhibition of cell growth measured after 72 hrs by CCK-8 method

[8] = test system: Staphylococcus aureus; assay: Antibacterial activity against Staphylococcus aureus ATCC25923 assessed as reduction in bacterial growth; type: functional
[9] = Acute toxicity in BALB/c mouse assessed as effect on heart at 50 mg/kg, iv administered as single dose measured upto 14 days by H and E staining based analysis; type: organism-based; settings: in vivo, 336 h, time < 14 day
[10] = Half life in Sprague-Dawley rat at 10 mg/kg, iv by LC-MS/MS analysis; type: ADME, organism-based; settings: in vivo
[11] = Antiproliferative activity against HEK293 cells assessed as inhibition of cell growth measured after 72 hrs by CCK-8 method; type: toxicity, cell-based; settings: human
[12] = test system: HCT-116; assay: Upregulation of ATF3 mRNA expression in human HCT-116 cells by RT-PCR analysis; type: functional, cell-based
[13] = test system: HCT-116; assay: Antitumor activity against human HCT-116 cells xenografted in BALB/c nude mouse model assessed as reduction in SDHB expression at upto 5 mg/kg, iv administered twice weekly by Western blot analysis; type: functional, organism-based
[14] = test system: HCT-116; assay: Effect on […] expression in ClpP knockdown human HCT-116 cells at 2 uM measured after 48 hrs by Western blot analysis; type: functional, cell-based
[15] = Toxicity in BALB/c nude mouse assessed as effect on kidney at 1.25 to 5 mg/kg, iv administered twice weekly and measured after 21 days by H and E staining based analysis; type: organism-based; settings: in vivo, 504 h, dose 1.25-5 mg/kg, time 21 day
[16] = test system: Staphylococcus aureus; assay: Antibacterial activity against Staphylococcus aureus ATCC29213 assessed as reduction in bacterial growth; type: functional
[17] = Toxicity in BALB/c nude mouse assessed as effect on heart at 1.25 to 5 mg/kg, iv administered twice weekly and measured after 21 days by H and E staining based analysis; type: organism-based; settings: in vivo, 504 h, dose 1.25-5 mg/kg, time 21 day
[18] = Cmax in Sprague-Dawley rat at 10 mg/kg, iv by LC-MS/MS analysis; type: ADME, organism-based; settings: in vivo
[19] = test system: HCT-116; assay: Induction of cell cycle arrest in human HCT-116 cells assessed as effect on number of cells at G1 phase at 0.5 to 2 uM measured after 48 hrs by PI staining based flow cytometry analysis; type: functional; settings: dose 0.5-2 µM
[20] = test system: HCT-116; assay: Induction of apoptosis in human HCT-116 cells assessed as upregulation of bax expression at 0.5 to 2 uM measured after 48 hrs by Western blot analysis; type: functional, cell-based; settings: dose 0.5-2 µM
[21] = test system: HCT-116; assay: Antitumor activity against human HCT-116 cells xenografted in BALB/c nude mouse model assessed as reduction in tumor weight at middle dose administered as iv twice weekly and measured upto 21 days; type: functional; settings: time <= 21 day
[22] = test system: HCT-116; assay: Induction of apoptosis in human HCT-116 cells assessed as reduction in SDHB expression measured after 48 hrs by Western blot analysis; type: functional, cell-based; settings: dose 0.5-2 µM
[23] = Acute toxicity in BALB/c mouse assessed as effect on body weight at middle to high dose iv measured upto 21 days relative to control; type: organism-based; settings: in vivo, 504 h, time < 21 day
[24] = test system: Staphylococcus aureus; assay: Antibacterial activity against Staphylococcus aureus ATCC43300 assessed as reduction in bacterial growth; type: functional
[25] = test system: HCT-116; assay: Upregulation of JUN expression in human HCT-116 cells measured after 48 hrs by Western blot analysis; type: functional, cell-based
[26] = test system: HCT-116; assay: Upregulation of DDIT4 expression in human HCT-116 cells measured after 48 hrs by Western blot analysis; type: functional, cell-based
[27] = Toxicity in BALB/c nude mouse assessed as effect on lung at 1.25 to 5 mg/kg, iv administered twice weekly and measured after 21 days by H and E staining based analysis; type: organism-based; settings: in vivo, 504 h, dose 1.25-5 mg/kg, time 21 day
[28] = test system: HCT-116; assay: Antitumor activity against human HCT-116 cells xenografted in BALB/c nude mouse model assessed as reduction in tumor weight at high dose administered as iv twice weekly and measured upto 21 days; type: functional; settings: time <= 21 day
[29] = test system: HCT-116; assay: Antitumor activity against human HCT-116 cells xenografted in BALB/c nude mouse model assessed as increase in Bax expression at upto 5 mg/kg, iv administered twice weekly by Western blot analysis; type: functional, organism-based
[30] = test system: SW-620; assay: cells; settings: Homo sapiens, SW-620, 72 h
Description: Antiproliferative activity against human SW-620 cells assessed as inhibition of cell growth measured after 72 hrs by CCK-8 method

[31] = Cmax in Sprague-Dawley rat at 10 mg/kg, po by LC-MS/MS analysis; type: ADME, organism-based; settings: in vivo
[32] = test system: HCT-116; assay: Antitumor activity against human HCT-116 cells xenografted in BALB/c nude mouse model assessed as reduction in tumor volume at 5 mg/kg,iv and measured upto 21 days relative to control; type: functional; design: scale not given: the % may be the effect or the level left; settings: time <= 21 day
[33] = test system: HCT-116; assay: Upregulation of GCLC expression in human HCT-116 cells measured after 48 hrs by Western blot analysis; type: functional, cell-based
[34] = test system: HCT-116; assay: cells; settings: Homo sapiens, HCT-116, 72 h
Description: Antiproliferative activity against human HCT-116 cells assessed as inhibition of cell growth measured after 72 hrs by CCK-8 method

[35] = Metabolic stability in rat liver microsomes assessed as intrinsic clearance at 1 uM measured upto 60 mins in presence of NADPH regenerating system by LC-MS/MS analysis; type: ADME, Microsome; settings: read-out: CLH
[36] = Acute toxicity in BALB/c mouse assessed as increase in body weight at 5 mg/kg, iv measured upto 21 days relative to control; type: organism-based; settings: in vivo, 504 h, time < 21 day
[37] = test system: HCT-116; assay: Upregulation of DDIT3 mRNA expression in human HCT-116 cells by RT-PCR analysis; type: functional, cell-based
[38] = Acute toxicity in BALB/c mouse assessed as effect on spleen at 50 mg/kg, iv administered as single dose measured upto 14 days by H and E staining based analysis; type: organism-based; settings: in vivo, 336 h, time < 14 day

N#Cc1cccc(CN2CCC=C(C(=O)NCc3ccc(C(F)(F)F)cc3)C2)c1
IC50 [1]: 3.5 µM
Activity [2]: inactive
Activity [3]: 70%
Activity [4]: Non-Toxic
IC50 at 72 h [5]: 60.6 µM
Activity [6]: Non-Toxic
IC50 [7]: 3.1 µM
MIC [8]: > 128 µg/mL
Activity [9]: Non-Toxic
half-life [10]: 4.8 h
IC50 at 72 h [11]: 78.1 µM
Activity [12]: Active
Activity [13]: Active
Activity [14]: inactive
Activity [15]: Non-Toxic
MIC [16]: > 128 µg/mL
Activity [17]: Non-Toxic
Cmax [18]: 966 ng/mL
Activity [19]: inactive
Activity [20]: Active
Activity [21]: 250 mg
Activity [22]: Dose-Dependent Effect
Activity [23]: Non-Toxic
MIC [24]: > 128 µg/mL
Activity [25]: Active
Activity [26]: Active
Activity [27]: Non-Toxic
Activity [28]: 300 mg
Activity [29]: Active
IC50 [30]: 1.5 µM
Cmax [31]: 137 ng/mL
Activity [32]: 83.6%
Activity [33]: Active
IC50 [34]: 1 µM
CLint scaled at 1 µM [35]: 305 mL/min/kg
Activity [36]: Toxic
Activity [37]: Active
Activity [38]: Non-Toxic
